# Assays:
# [1] = biological target: T1, GBA3 (Homo sapiens, UniProt Q9H227)
# T1 sequence (Q9H227 1-469): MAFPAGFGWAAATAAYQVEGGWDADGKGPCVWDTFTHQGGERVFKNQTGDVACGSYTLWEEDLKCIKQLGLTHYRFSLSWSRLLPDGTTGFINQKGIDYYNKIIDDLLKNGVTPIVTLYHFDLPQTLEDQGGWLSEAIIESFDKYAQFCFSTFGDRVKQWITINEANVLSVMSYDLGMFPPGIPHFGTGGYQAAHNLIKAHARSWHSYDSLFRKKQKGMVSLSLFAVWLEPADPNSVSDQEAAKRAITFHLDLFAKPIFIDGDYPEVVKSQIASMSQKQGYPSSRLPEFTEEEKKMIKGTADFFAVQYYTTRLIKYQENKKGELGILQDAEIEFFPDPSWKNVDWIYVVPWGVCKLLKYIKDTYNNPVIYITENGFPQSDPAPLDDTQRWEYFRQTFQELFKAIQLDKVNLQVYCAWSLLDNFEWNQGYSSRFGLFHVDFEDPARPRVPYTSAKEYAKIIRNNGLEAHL
# Experimental: (§1) Next, all new compounds were screened on their GBA1/GBA2/GBA3 inhibitory potency in a fluorogenic substrate assay (enzyme‐mediated hydrolysis of the fluorogenic substrate, 4‐methylumbelliferyl β‐D‐glucopyranoside; 4‐MU‐β‐D‐Glu). […] The IC50 values were determined after incubation of each individual compound with either recombinant human GBA1 (rhGBA1) or lysates of HEK293T cells overexpressing GBA2 or GBA3.
# (§2) All assays were performed in 96-well plates (Greiner, black, flat-bottomed) at 37 °C. For GBA1, 3.5 ng of rhGBA1 (Imiglucerase,
# (§3) Sanofi Genzyme) was dissolved in 12.5 μL McIlvaine buffer (150 mM citric acid-Na2HPO4, pH 5.2), supplemented with 0.1%
# (§4) (v/v) Triton X-100, and 0.2% (w/v) sodium taurocholate, 0.1% (w/v) bovine serum albumin (BSA). Lysates of GBA1/GBA2 KO
# (§5) HEK293T cells overexpressing GBA2 or GBA3 were prepared by sonication on ice with Polytron PT 1300D son icator
# (§6) (Kinematica) in potassium phosphate buffer (25 mM K2HPO4/KH2PO4, pH 6.5, supplemented with 0.1% (v/v) Triton X-100 and protease inhibitor cocktail (EDTA-free, Roche)). The lysates were diluted to 12.5 μL in McIlvaine buffer (150 mM, pH 5.8 for
# (§7) GBA2 or pH 6.0 for GBA3) supplemented with 0.1% (w/v) bovine serum albumin (BSA). The enzymes were incubated with 12.5
# (§8) μL solution of inhibitors in McIlvaine buffer (150 mM, pH appropriate for each enzyme, final concentration 1% DMSO) at 37 °C
# (§9) for 30 minutes (-configured aziridines and ABP 3) or 3 hours (epoxides and -configured aziridines). This was followed by
# (§10) incubation of the samples with 100 μL of fluorogenic substrate mixtures for 30 minutes. The substrate mixtures diluted in
# (§11) McIlvaine buffer (supplemented with 0.1% (w/v) BSA) at optimal pH for each enzyme were as follows: GBA1, 3.75 mM 4-MU-
# (§12) -D-glucopyranoside (Glycosynth) at pH 5.2, supplemented with 0.2% (w/v) sodium taurocholate, 0.1% (v/v) Triton X-100, 0.1%
# (§13) (w/v) bovine serum albumin (BSA); GBA2, 4-MU--D-glucopyranoside (3.75 mM) at pH 5.8; GBA3, 4-MU--D-glucopyranoside
# (§14) (3.75 mM) at pH 6.0. After stopping the enzyme reaction with 200 μL 1 M NaOH-glycine (pH 10.3), 4-methylumbelliferone
# (§15) fluorescence was measured with a fluorimeter LS55 (Perkin Elmer) with λEX 366 nm and λEM 445 nm. Enzyme activities were
# (§16) determined by subtraction of background (measured for incubations without enzyme), normalized with enzyme activity of the
# (§17) control sample (vehicle incubation) and curve-fitted to inhibitor concentrations using GraphPad Prism 9.0 software by the
# (§18) [inhibitor] vs. response - variable slope (four parameters) method to determine IC 50 values.
# (§19) values from triplicate or duplicate experiments (n = 3 biological replicates) and error ranges indicate standard deviation (SD).
# [2] = biological target: T2, recombinant human GBA1 (rhGBA1) (Homo sapiens, UniProt P04062, R534H); test: fluorogenic substrate assay (4-MU-β-D-Glu hydrolysis), rhGBA1
# T2 sequence (P04062 40-536 R534H): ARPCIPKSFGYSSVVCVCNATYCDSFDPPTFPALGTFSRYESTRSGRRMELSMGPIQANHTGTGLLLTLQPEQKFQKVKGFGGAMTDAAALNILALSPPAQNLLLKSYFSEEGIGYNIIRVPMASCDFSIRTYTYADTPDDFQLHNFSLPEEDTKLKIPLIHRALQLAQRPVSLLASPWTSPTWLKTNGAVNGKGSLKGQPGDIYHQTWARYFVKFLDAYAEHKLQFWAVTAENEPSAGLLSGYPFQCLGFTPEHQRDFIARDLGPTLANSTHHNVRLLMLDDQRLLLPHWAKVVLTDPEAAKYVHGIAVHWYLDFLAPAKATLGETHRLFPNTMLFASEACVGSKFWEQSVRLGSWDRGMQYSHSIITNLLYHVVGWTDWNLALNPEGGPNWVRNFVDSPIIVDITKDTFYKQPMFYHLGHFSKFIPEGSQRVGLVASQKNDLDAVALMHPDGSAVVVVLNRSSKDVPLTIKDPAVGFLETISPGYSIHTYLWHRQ
# Experimental: as §1, §2, §3, §4, §5, §6, §7, §8, §9, §10, §11, §12, §13, §14, §15, §16, §17, §18, §19
# [3] = biological target: T3, GBA2 (Homo sapiens, UniProt Q9HCG7)
# T3 sequence (Q9HCG7 1-927): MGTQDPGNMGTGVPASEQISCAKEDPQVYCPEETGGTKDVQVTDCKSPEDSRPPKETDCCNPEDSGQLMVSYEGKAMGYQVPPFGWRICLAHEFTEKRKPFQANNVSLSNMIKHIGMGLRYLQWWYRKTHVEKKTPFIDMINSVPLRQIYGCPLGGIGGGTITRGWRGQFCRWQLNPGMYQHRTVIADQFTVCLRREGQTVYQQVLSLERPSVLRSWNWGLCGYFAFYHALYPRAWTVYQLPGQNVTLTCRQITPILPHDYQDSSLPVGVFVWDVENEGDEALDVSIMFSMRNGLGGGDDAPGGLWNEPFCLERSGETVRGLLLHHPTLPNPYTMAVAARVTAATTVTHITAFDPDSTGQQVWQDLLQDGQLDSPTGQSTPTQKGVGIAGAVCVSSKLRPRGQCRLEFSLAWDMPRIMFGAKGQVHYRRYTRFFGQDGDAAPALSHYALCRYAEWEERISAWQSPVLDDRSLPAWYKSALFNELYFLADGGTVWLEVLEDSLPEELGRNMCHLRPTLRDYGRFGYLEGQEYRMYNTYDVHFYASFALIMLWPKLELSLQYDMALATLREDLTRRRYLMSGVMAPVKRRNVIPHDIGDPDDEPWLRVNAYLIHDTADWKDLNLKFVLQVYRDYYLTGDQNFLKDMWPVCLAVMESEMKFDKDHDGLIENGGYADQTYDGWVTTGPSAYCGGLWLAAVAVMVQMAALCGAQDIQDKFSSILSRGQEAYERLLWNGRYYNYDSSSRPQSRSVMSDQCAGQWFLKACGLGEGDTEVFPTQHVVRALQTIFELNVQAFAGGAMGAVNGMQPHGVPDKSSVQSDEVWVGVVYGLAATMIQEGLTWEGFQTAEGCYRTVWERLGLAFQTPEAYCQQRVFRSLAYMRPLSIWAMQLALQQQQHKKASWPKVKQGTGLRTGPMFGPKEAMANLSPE
# Experimental: as §1, §2, §3, §4, §5, §6, §7, §8, §9, §10, §11, §12, §13, §14, §15, §16, §17, §18, §19
# [4] = test system: endogenous GBA1 and overexpressed human GBA2 and GBA3; test: ABP labeling (ABPP) in lysates of GBA2/GBA3 overexpressing HEK293T cells, selectivity pattern; type: binding; details: pH 6.0, 30 min
# Experimental: As a negative control, lysates of HEK293T cells with knocked‐out (KO) expression of GBA1 and GBA2 were incubated with a high concentration of each ABP. The observed selectivity patterns of most compounds were in line with the results of the fluorogenic substrate assay except for 50, which labeled GBA1 less potently than expected. […] For instance, besides labeling GBA2 and GBA3 (104.6 kDa and 53.6 kDa respectively), ABP 5 labels three major off‐target proteins (~45 kDa, ~55 kDa, and ~65 kDa), and these bands appear also in the experiments with the other deoxygenated ABPs (Figure 3B). Possibly, the deoxygenated ABPs are more hydrophobic compared to ABPs 1 and 3, causing them to more readily associate with hydrophobic protein patches and subsequently engage in reactions.
# described previously.6,16
# protease inhibitor cocktail (EDTA-free, Roche)).
# The enzymes were incubated with 12.5
# The substrate mixtures diluted in
# with BODIPY fluorescent ABP 2.
Compound,IC50 [1],IC50 [2],IC50 [3],target glucosidases labeled by the ABP [4]
CN1/C(=C/C=C/C=C/C2=[N+](CCCCCC(=O)NCc3cn(C[C@@H]4[C@@H](O)[C@H](O)[C@@H](O)[C@@H]5O[C@H]45)nn3)c3ccccc3C2(C)C)C(C)(C)c2ccccc21 [Compound 3],> 15000 nM,42 ± 4 nM,> 15000 nM,
CN1/C(=C/C=C/C=C/C2=[N+](CCCCCC(=O)NCc3cn(CCCCCCCCN4[C@@H]5[C@H](CO)C[C@H](O)[C@@H](O)[C@@H]54)nn3)c3ccccc3C2(C)C)C(C)(C)c2ccccc21 (stereo partly drawn) [Compound 4],260 ± 60 nM,260 ± 10 nM,240 ± 30 nM,label all three target glucosidases
CN1/C(=C/C=C/C=C/C2=[N+](CCCCCC(=O)NCc3cn(CCCCCCCCN4[C@@H]5[C@H](CO)[C@@H](O)[C@H](O)[C@@H](O)[C@@H]54)nn3)c3ccccc3C2(C)C)C(C)(C)c2ccccc21 (stereo partly drawn) [Compound 1],31 ± 5 nM,0.54 ± 0.21 nM,145 ± 26 nM,modifies all three GBAs
CN1/C(=C/C=C/C=C/C2=[N+](CCCCCC(=O)NCc3cn(CCCCCCCCN4[C@@H]5[C@H](CO)C[C@H](O)C[C@@H]54)nn3)c3ccccc3C2(C)C)C(C)(C)c2ccccc21 (stereo partly drawn) [Compound 5],1230 ± 80 nM,32000 ± 3000 nM,230 ± 10 nM,"GBA2 and, to a lesser extent, GBA3"

# Reference: article PMC11639629, “Synthesis and Biological Evaluation of Deoxycyclophellitols as Human Retaining β‐Glucosidase Inhibitors” (Chemistry (Weinheim an Der Bergstrasse, Germany), 2024)
